Results as given in patent publication US10738045B2, “Pesticidally active heterocyclic derivatives with sulphur and cyclopropyl containing substituents” (SYNGENTA PARTICIPATIONS AG, priority 2015, dated 2020).

Key:
Test in all cases: whole plant or invertebrate
Type in all cases: in vivo
[1] = tested on: Bemisia tabaci (Cotton White Fly); conditions: foliar, 144 h, application rate of 200 ppm, cotton leaf discs, adult white flies, 6 days after incubation
Procedure: Cotton leaf discs were placed on agar in 24-well microtiter plates and sprayed with aqueous test solutions prepared from 10,000 ppm DMSO stock solutions. After drying the leaf discs were infested with adult white flies. The samples were checked for mortality 6 days after incubation.

[2] = tested on: Diabrotica balteata (Corn Root Worm); conditions: 96 h, application rate of 200 ppm, L2 larvae, 4 days after infestation, read-out: effect in at least one of the two categories (mortality or growth inhibition)
Procedure: Maize sprouts placed onto an agar layer in 24-well microtiter plates were treated with aqueous test solutions prepared from 10,000 ppm DMSO stock solutions by spraying. After drying, the plates were infested with L2 larvae (6 to 10 per well). The samples were assessed for mortality and growth inhibition in comparison to untreated samples 4 days after infestation.

[3] = tested on: Euschistus heros (Neotropical Brown Stink Bug); conditions: in Glycine max, 120 h, application rate of 200 ppm, N2 nymphs, 5 days after infestation, read-out: effect in at least one of the two categories (mortality or growth inhibition)
Procedure: Soybean leaves on agar in 24-well microtiter plates were sprayed with aqueous test solutions prepared from 10,000 ppm DMSO stock solutions. After drying the leaves were infested with N2 nymphs. The samples were assessed for mortality and growth inhibition in comparison to untreated samples 5 days after infestation.

[4] = tested on: Frankliniella occidentalis (Western Flower Thrips); conditions: foliar, 168 h, application rate of 200 ppm, sunflower leaf discs, population of mixed ages, 7 days after infestation
Procedure: (§1) Sunflower leaf discs were placed on agar in 24-well microtiter plates and sprayed with aqueous test solutions prepared from 10,000 DMSO stock solutions. After drying the leaf discs were infested with a Frankliniella population of mixed ages. The samples were assessed for mortality 7 days after infestation.

[5] = tested on: Myzus persicae (Green Peach Aphid); conditions: foliar, 144 h, application rate of 200 ppm, sunflower leaf discs, population of mixed ages, 6 days after infestation
Procedure: Sunflower leaf discs were placed onto agar in a 24-well microtiter plate and sprayed with aqueous test solutions prepared from 10,000 ppm DMSO stock solutions. After drying, the leaf discs were infested with an aphid population of mixed ages. The samples were assessed for mortality 6 days after infestation.

[6] = tested on: Plutella xylostella (Diamond Back Moth); conditions: 120 h, application rate of 200 ppm, L2 larvae, 5 days after infestation, read-out: effect in at least one of the two categories (mortality or growth inhibition)
Procedure: 24-well microtiter plates with artificial diet were treated with aqueous test solutions prepared from 10,000 ppm DMSO stock solutions by pipetting. After drying, the plates were infested with L2 larvae (10 to 15 per well). The samples were assessed for mortality and growth inhibition in comparison to untreated samples 5 days after infestation.

[7] = tested on: Spodoptera littoralis (Egyptian Cotton Leaf Worm); conditions: foliar, 72 h, application rate of 200 ppm, L1 larvae, 3 days after infestation, read-out: control (mortality, anti-feeding effect or growth inhibition)
Procedure: Cotton leaf discs were placed onto agar in 24-well microtiter plates and sprayed with aqueous test solutions prepared from 10,000 ppm DMSO stock solutions. After drying the leaf discs were infested with five L1 larvae. The samples were assessed for mortality, anti-feeding effect, and growth inhibition in comparison to untreated samples 3 days after infestation.

[8] = tested on: Spodoptera littoralis (Egyptian Cotton Leaf Worm); conditions: 144 h, test rate of 12.5 ppm, lettuce grown on treated agar, 6 days after infestation, read-out: effect in at least one of the three categories (mortality, anti-feeding, or growth inhibition)
Text: Test compounds were applied by pipette from 10,000 ppm DMSO stock solutions into 24-well plates and mixed with agar. Lettuce seeds were placed onto the agar and the multi well plate was closed by another plate which contained also agar. After 7 days the compound was absorbed by the roots and the lettuce grew into the lid plate. The lettuce leaves were then cut off into the lid plate. Spodoptera eggs were pipetted through a plastic stencil onto a humid gel blotting paper and the lid plate was closed with it. The samples were assessed for mortality, anti-feedant effect and growth inhibition in comparison to untreated samples 6 days after infestation.

[9] = tested on: Thrips tabaci (Onion Thrips); conditions: foliar, 144 h, application rate of 200 ppm, sunflower leaf discs, population of mixed ages, 6 days after infestation
Procedure: as §1, with “10,000 ppm” for “10,000”, “thrips” for “Frankliniella”, “6” for “7”

[10] = tested on: Myzus persicae (Green Peach Aphid); conditions: 144 h, test rate of 24 ppm, roots of pea seedlings in test solution, 6 days
Procedure: Roots of pea seedlings infested with an aphid population of mixed ages were placed directly into aqueous test solutions prepared from 10,000 DMSO stock solutions. The samples were assessed for mortality 6 days after placing seedlings into test solutions.

[11] = tested on: Tetranychus urticae (Two-Spotted Spider Mite); conditions: foliar, 192 h, application rate of 200 ppm, bean leaf discs, mixed population (mobile stages), 8 days after infestation
Procedure: Bean leaf discs on agar in 24-well microtiter plates were sprayed with aqueous test solutions prepared from 10,000 ppm DMSO stock solutions. After drying the leaf discs were infested with a mite population of mixed ages. The samples were assessed for mortality on mixed population (mobile stages) 8 days after infestation.

CCS(=O)(=O)c1cc(C(F)(F)F)cnc1-c1nc2cc(C(F)(F)F)n(C3CC3)c(=O)c2n1C [Compound A1, 5-cyclopropyl-2-[3-ethylsulfonyl-5-(trifluoromethyl)-2-pyridyl]-3-methyl-6-(trifluoromethyl) imidazo[4,5-c]pyridin-4-one]
≥ 80%: mortality at 200 ppm [1] | percent effect (mortality or growth inhibition) at 200 ppm [2] | percent effect (mortality or growth inhibition) at 200 ppm [3] | mortality at 200 ppm [4] | mortality at 200 ppm [5] | percent effect (mortality or growth inhibition) at 200 ppm [6] | percent control (mortality, anti-feedant effect or growth inhibition) at 200 ppm [7] | percent effect (mortality, anti-feeding or growth inhibition) at 12.5 ppm [8] | mortality at 200 ppm [9]

CCS(=O)(=O)c1cc(-n2ccc(C(F)(F)F)n2)cnc1-c1nc2cc(C(F)(F)F)n(C3CC3)c(=O)c2n1C [Compound A3, 5-cyclopropyl-2-[3-ethylsulfonyl-5-[3-(trifluoromethyl)pyrazol-1-yl]-2-pyridyl]-3-methyl-6-(trifluoromethyl)imidazo[4,5-c]pyridin-4-one]
≥ 80%: percent effect (mortality or growth inhibition) at 200 ppm [2] | percent effect (mortality or growth inhibition) at 200 ppm [3] | percent effect (mortality or growth inhibition) at 200 ppm [6] | percent control (mortality, anti-feedant effect or growth inhibition) at 200 ppm [7]

CCS(=O)(=O)c1cc(Br)cnc1-c1nc2cc(C(F)(F)F)n(C3CC3)c(=O)c2n1C [Compound A5, 2-(5-bromo-3-ethylsulfonyl-2-pyridyl)-5-cyclopropyl-3-methyl-6-(trifluoromethyl)imidazo[4,5-c]pyridin-4-one]
≥ 80%: mortality at 200 ppm [1] | percent effect (mortality or growth inhibition) at 200 ppm [2] | percent effect (mortality or growth inhibition) at 200 ppm [3] | mortality at 200 ppm [5] | percent effect (mortality or growth inhibition) at 200 ppm [6] | percent control (mortality, anti-feedant effect or growth inhibition) at 200 ppm [7] | percent effect (mortality, anti-feeding or growth inhibition) at 12.5 ppm [8] | mortality at 200 ppm [9]

CCS(=O)(=O)c1cc(-c2cc(F)cc(F)c2)cnc1-c1nc2cc(C(F)(F)F)n(C3CC3)c(=O)c2n1C [Compound A6, 5-cyclopropyl-2-[5-(3,5-difluorophenyl)-3-ethylsulfonyl-2-pyridyl]-3-methyl-6-(trifluoromethyl)imidazo[4,5-c]pyridin-4-one]
≥ 80%: mortality at 200 ppm [1] | percent effect (mortality or growth inhibition) at 200 ppm [2] | percent effect (mortality or growth inhibition) at 200 ppm [3] | mortality at 200 ppm [4] | mortality at 200 ppm [5] | percent effect (mortality or growth inhibition) at 200 ppm [6] | percent control (mortality, anti-feedant effect or growth inhibition) at 200 ppm [7] | percent effect (mortality, anti-feeding or growth inhibition) at 12.5 ppm [8] | mortality at 200 ppm [9]

CCS(=O)(=O)c1cc(-c2cc(C(F)(F)F)ccn2)cnc1-c1nc2cc(C(F)(F)F)n(C3CC3)c(=O)c2n1C [Compound A7, 5-cyclopropyl-2-[3-ethylsulfonyl-5-[4-(trifluoromethyl)-2-pyridyl]-2-pyridyl]-3-methyl-6-(trifluoromethyl)imidazo[4,5-c]pyridin-4-one]
≥ 80%: mortality at 200 ppm [1] | percent effect (mortality or growth inhibition) at 200 ppm [2] | percent effect (mortality or growth inhibition) at 200 ppm [3] | mortality at 200 ppm [4] | mortality at 200 ppm [5] | percent effect (mortality or growth inhibition) at 200 ppm [6] | percent control (mortality, anti-feedant effect or growth inhibition) at 200 ppm [7]

CCS(=O)(=O)c1cc(C2(C#N)CC2)cnc1-c1nc2cc(C(F)(F)F)n(C3CC3)c(=O)c2n1C [Compound A31, 1-[6-[5-cyclopropyl-3-methyl-4-oxo-6-(trifluoromethyl)imidazo[4,5-c]pyridin-2-yl]-5-ethylsulfonyl-3-pyridyl]cyclopropanecarbonitrile]
≥ 80%: mortality at 200 ppm [1] | percent effect (mortality or growth inhibition) at 200 ppm [2] | percent effect (mortality or growth inhibition) at 200 ppm [3] | mortality at 200 ppm [4] | mortality at 200 ppm [5] | mortality at 24 ppm [10] | percent effect (mortality or growth inhibition) at 200 ppm [6] | percent control (mortality, anti-feedant effect or growth inhibition) at 200 ppm [7] | percent effect (mortality, anti-feeding or growth inhibition) at 12.5 ppm [8] | mortality at 200 ppm [11] | mortality at 200 ppm [9]

CCS(=O)(=O)c1cc(-n2cnc(Cl)n2)cnc1-c1nc2cc(C(F)(F)F)n(C3CC3)c(=O)c2n1C [Compound A34, 2-[5-(3-chloro-1,2,4-triazol-1-yl)-3-ethylsulfonyl-2-pyridyl]-5-cyclopropyl-3-methyl-6-(trifluoromethyl)imidazo[4,5-c]pyridin-4-one]
≥ 80%: percent effect (mortality or growth inhibition) at 200 ppm [2] | percent effect (mortality or growth inhibition) at 200 ppm [3] | mortality at 200 ppm [4] | mortality at 200 ppm [5] | percent effect (mortality or growth inhibition) at 200 ppm [6] | percent control (mortality, anti-feedant effect or growth inhibition) at 200 ppm [7] | percent effect (mortality, anti-feeding or growth inhibition) at 12.5 ppm [8]
